Values after ≈ are worked out from the molar mass of the structure shown.
Legend:
Type in all cases: cell-based
E coli NCTC 10418 = assay: MIC, veterinary bacteria; details: veterinary bacteria (Table 2), read-out: MIC
Bord bronchiseptica BO8 = assay: MIC, veterinary bacteria; details: veterinary bacteria (Table 2), read-out: MIC
Bord bronchisptica BO9 = assay: MIC, veterinary bacteria; details: veterinary bacteria (Table 2), read-out: MIC
Past multocida PA2 = assay: MIC, veterinary bacteria; details: veterinary bacteria (Table 2), read-out: MIC
[1] = test system: Erysipelothrix rhusiopathiae NCTC 8163; assay: MIC, veterinary bacteria; details: NCTC8163, veterinary bacteria (Table 2), read-out: MIC
Strep uberis SPU1 = assay: MIC, veterinary bacteria; details: veterinary bacteria (Table 2), read-out: MIC
M. suipneumoniae MS 16 = assay: MIC, anti-mycoplasmal, Friis broth solidified with 0.9% agarose; details: Mesomycoplasma hyopneumoniae, MS16, 144 h, inoculum 10^3 to 10^5 C.F.U., 6 days incubation at 37°C, read-out: in vitro MIC
[2] = test system: M. hyosynoviae ATCC 25591; assay: as above; details: 144 h, inoculum 10^3 to 10^5 C.F.U., 6 days incubation at 37°C, read-out: in vitro MIC
M. dispar NCTC 10125 = assay: as above; details: 144 h, inoculum 10^3 to 10^5 C.F.U., 6 days incubation at 37°C, read-out: in vitro MIC
M. gallisepticum S6 = assay: as above; details: Mycoplasmoides gallisepticum, 144 h, inoculum 10^3 to 10^5 C.F.U., 6 days incubation at 37°C, read-out: in vitro MIC

**Q.** With `CC(=CC(=O)OCCCC(=O)c1ccccc1)CC1OCC(CC2OC2C(C)C(C)O)C(O)C1O` (stereo not shown) [Example 5, 4-Phenylbutan-4-onyl monate A] as the compound, how does the MIC (E coli NCTC 10418) read?
**A.** The MIC was 80 µg/mL (≈ 163 µM).

**Q.** What about the MIC (Bord bronchiseptica BO8) of the same compound?
**A.** Its MIC is 40 µg/mL (≈ 81.5 µM).

**Q.** And the MIC (Bord bronchisptica BO9)?
**A.** The MIC was 5 µg/mL (≈ 10.2 µM).

**Q.** And the MIC (Past multocida PA2)?
**A.** The MIC was 0.312 µg/mL (≈ 0.636 µM).

**Q.** What about the MIC [1] of the same compound?
**A.** The MIC was 40 µg/mL (≈ 81.5 µM).

**Q.** What about the MIC (Strep uberis SPU1) of the same compound?
**A.** The MIC was 0.07 µg/mL (≈ 0.143 µM).

**Q.** What about the MIC (M. suipneumoniae MS 16) of the same compound?
**A.** The MIC was 0.25 µg/mL (≈ 0.51 µM).

**Q.** And the MIC [2]?
**A.** The MIC was 0.05 µg/mL (≈ 0.102 µM).

**Q.** And the MIC (M. dispar NCTC 10125)?
**A.** Its MIC is 0.1 µg/mL (≈ 0.204 µM).

**Q.** And the MIC (M. gallisepticum S6)?
**A.** Its MIC is 1 µg/mL (≈ 2.04 µM).
